The values below come from US11685739B2, “High penetration drugs and their compositions thereof for treatment of Parkinson diseases” (TECHFIELDS PHARMA CO., LTD, priority 2013, dated 2023).

Like-named read-outs stand apart in the source and are kept apart here.

Data set [1] relates to motor function deficits induced by 6-OHDA in Parkinson's disease (PD) model. The data set is described as follows: Rotarod test in rats with 6-OHDA lesion, Parkinson's disease (PD) model. To be noted: for Side effects (dyskinesia at peak dose, end-of-dose deterioration of function etc.): L-DOPA orally. The data set is classed as in vivo, Sprague-Dawley rats. (In general: Falling from the rotarod earlier than controls is read as motor impairment.)

Data set [2] shares this test system. Described as above. The data set is classed as in vivo, Sprague-Dawley rats. As to conditions: Example 31; for Side effects (dyskinesia at peak dose, end-of-dose deterioration of function etc.): L-DOPA orally, pro-drug transdermally. On the procedure: Test subjects (Sprague-Dawley rats) were prepared, grouped, and tested following the protocol below: • 1. 200 Sprague-Dawley rats (male, 200-230 g) underwent brain stereotaxic surgery after 1 week acclamation in animal facility; • 2. After anesthesia, a bur hole (1 mm in diameter) was made on skull on the left side with a motor drill based on the coordinates: AP +0.5 mm, ML −2.8 mm, DV 6.0 mm relative to Bregma; • 3. 6-OHDA (20 μg at 5 mg/mL) or sterile saline was injected into the left striatum with a microsyringe fitted with a 26-gauge steel cannula. The chemical caused the retrograde neurodegeneration in the distal substantia nigra and impairs dopamine transmission in the nigro-striatal pathway, which eventually led to functional disturbance of motor activities; • 4. Apomorphine and classic rotation test was carried out to screen animals at the end of week 3 post 6-OHDA treatment. Animals that matched lesion type and apomorphine-induced rotational scores were allotted to 11 groups; and • 5. Rats were divided into 11 groups (n=12), each group was applied with the drug(s) at the doses specified in Table 2:
• 6. Dose Formulations • (1) L-DOPA in water (3 mg/mL) was the positive control solution for group 1 (orally for group 1, transdermally for groups 2-11). The volume of administration was 2 mL/kg. Vehicle solution (negative control solution for group 2) was 30% ethanol (v/v). The volume of administration was 1286 μL/kg. Other test solutions (groups 3-11) were freshly prepared every day. • (2) Preparation method of test solutions for groups 3-5: 50.33 mg of Drug A was dissolved in 10 mL of 30% ethanol(v/v). This solution was the stock solution[(2)a]. • a. The test solution for group 5 (high dose group) of Drug A: The stock solution [(2)a] was the test solution for Group 5. The volume of administration was 1286 μL/kg. • b. The test solution for group 4 (moderate dose group) of Drug A: 3.00 mL of the stock solution [(2)a] was diluted to final volume 9.00 mL with 30% ethanol(v/v). This solution was the test solution for Group 4. The volume of administration was 1286 μL/kg. • c. […]

For data set [3] the following is noted: human, pH 7.4.
Data set [4] in a line: Penetration rates through human skin in vitro, modified Franz cells. To be noted: through human skin (360-400 μm), receiving fluid pH 7.4 phosphate buffer (0.2 M).

In the case of `NC(Cc1ccc(O)c(O)c1)C(=O)O` (stereo not shown) [Compound-31, 2-amino-3-(3,4-dihydroxyphenyl)propanoic acid], the “Efficacy in Rotarod test comparing to Vehicle group” value in data set [1] (Example 31, 6 mg/kg orally (Group 1), three-week treatment) was “did not exhibit efficacy”; in data set [1] (Example 35, 6 mg/kg orally, four-week treatment), “did not exhibit efficacy”; in data set [1] (Example 36, 6 mg/kg orally, four-week treatment), “did not exhibit efficacy”. In addition, the “Efficacy in Rotarod test comparing to the negative control group” value in data set [1] (Example 33, 6 mg/kg orally, four-week treatment) was “did not exhibit efficacy”. Also, the “Side effects (dyskinesia at peak dose, end-of-dose deterioration of function etc.)” value in data set [1] (Example 33, pro-drug transdermally) was “caused nausea, vomiting, gastrointestinal bleeding, dyskinesia at peak dose, and end-of-dose deterioration of function”; in data set [1] (Example 35, pro-drug of dopamine transdermally) it was “caused nausea, vomiting, gastrointestinal bleeding, dyskinesia at peak dose, and end-of-dose deterioration of function”; in data set [1] (Example 36, pro-drug transdermally) it was “caused nausea, vomiting, gastrointestinal bleeding, dyskinesia at peak dose, and end-of-dose deterioration of function”; in data set [2], “caused nausea, vomiting, gastrointestinal bleeding, dyskinesia at peak dose, and end-of-dose deterioration of function”. For the same compound, the “The cumulative amount of test compounds” value turned out to be 0.001 mg in data set [3] (1 h), 0.001 mg in data set [3] (2 h), 0.002 mg in data set [3] (4 h) and 0.003 mg in data set [3] (8 h).
`CC(C)Cc1ccc(C(C)C(=O)O)cc1` (stereo not shown) [Compound-33, 2-(ρ-isobutylphenyl)propionic acid]: the “The cumulative amount of test compounds” value in data set [4] (1 h) was 0.001 mg; in data set [4] (2 h), 0.001 mg; in data set [4] (4 h) it was 0.002 mg; in data set [4] (8 h), 0.003 mg.
Consider `CC(C)OC(=O)[C@@H](N)Cc1ccc(OC(=O)c2ccccc2)c(OC(=O)c2ccccc2)c1.Cl` [Compound-11, (S)-4-(2-amino-3-isopropoxy-3-oxopropyl)-1,2-phenylene dibenzoate hydrochloride], for which the “Efficacy of low dose compared with moderate and high dose groups” value in data set [1] (Example 31, 0.67 mg/kg transdermal (group 3) vs 2 mg and 6 mg/kg (groups 4 and 5)) is “much higher than that of the moderate and high dose groups”. The “Side effects (dyskinesia at peak dose, end-of-dose deterioration of function etc.)” value in data set [2] was “avoided dyskinesia at peak dose, and end-of-dose deterioration of function”. Moreover, the “The cumulative amount of test compounds” value was determined as 0.58 mg in data set [3] (1 h), 1.15 mg in data set [3] (2 h), 2.33 mg in data set [3] (4 h) and 4.71 mg in data set [3] (8 h).
Turning to `Cl.NCCc1ccc(OC(=O)c2ccccc2)c(OC(=O)c2ccccc2)c1` [Compound-10, 4-(2-aminoethyl)-1,2-phenylene dibenzoate hydrochloride], the “The cumulative amount of test compounds” value in data set [4] (1 h) is given as 0.68 mg; in data set [4] (2 h) it was 1.35 mg; in data set [4] (4 h) it was 2.74 mg; in data set [4] (8 h), 5.55 mg.
As for `Cl.NCCc1ccc(O)c(O)c1` [Compound-30, 4-(2-aminoethyl)benzene-1,2-diol hydrochloride], the “The cumulative amount of test compounds” value in data set [4] (1 h) is given as 0.12 mg; in data set [4] (2 h), 0.25 mg; in data set [4] (4 h), 0.52 mg; in data set [4] (8 h), 1.05 mg.
Consider `CCCN(CCC)CCOC(=O)c1cc(-c2ccc(F)cc2F)ccc1OC(C)=O.Cl` [Compound-27, 2-(dipropylamino)ethyl 4-acetoxy-2′,4′-difluoro-[1,1′-biphenyl]-3-carboxylate hydrochloride], for which, in data set [1] (Example 36, 15 mg and 45 mg/kg transdermal, four-week treatment), the “Efficacy in Rotarod test comparing to vehicle group and positive control group” value was “good efficacy”. For the same compound, the “The cumulative amount of test compounds” value came to 1.01 mg in data set [3] (1 h), 2.03 mg in data set [3] (2 h), 4.11 mg in data set [3] (4 h) and 8.25 mg in data set [3] (8 h).
With `CCN(CC)CCOC(=O)c1ccccc1OC(C)=O.Cl` [Compound-29, 2-(diethylamino)ethyl 2-acetoxybenzoate hydrochloride], the “Efficacy in Rotarod test comparing to vehicle group and positive control group” value in data set [2] (30 mg and 90 mg/kg transdermal, three-week treatment) was “good efficacy”. Further, the “The cumulative amount of test compounds” value in data set [3] (1 h) is listed as 1.08 mg; in data set [3] (2 h), 2.13 mg; in data set [3] (4 h), 4.27 mg; in data set [3] (8 h) it was 8.48 mg.
